The subject of one series is VCAM-1. Briefly: In Vitro VCAM-1 Assay (TNF-α stimulated endothelial cells, cell-surface ELISA). The format is cell-based. Particulars: primary human aortic (HAEC) or pulmonary (HPAEC) endothelial cells, TNF-α 1 ng/ml, approximately 16 hours, ELISA OD 450 nm. How it is done:
Cell Culture and compound dosing: Cultured primary human aortic (HAEC) or pulmonary (HPAEC) endothelial cells were obtained from Clonetics, Inc., and were used below passage 9. Cells were seeded in 96 well plates such that they would reach 90–95% confluency by the following day. On the following day the cells were stimulated with TNF-α (1 ng/ml) in the presence or absence of compounds dissolved in DMSO such that the final concentration of DMSO is 0.25% or less. To establish a dose curve for each compound, four concentrations in 2- to 5-fold increments were used. Cells were exposed to TNF-α and compounds for approximately 16 hours. The next day the cells were examined under microscope to score for visual signs of toxicity or cell stress.
Following 16 hr exposure to TNF-α and compound the media was discarded and the cells were washed once with Hanks Balanced Salt Solution (HBSS)/Phosphate buffered saline (PBS) (1:1). Primary antibodies against VCAM-1 (0.25 μg/ml in HBSS/PBS+5% FBS) were added and incubated for 30–60 minutes at 37° C. Cells were washed with HBSS/PBS three times, and secondary antibody Horse Radish Peroxidase (HRP)-conjugated goat anti-mouse IgG (1:500 in HBSS/PBS+5% FBS) were added and incubated for 30 minutes at 37° C. Cells were washed with HBSS/PBS four time and TMB substrate were added and incubated at room temperature in the dark until there was adequate development of blue color. The length of time of incubation was typically 5–15 minutes. 2N sulfuric acid was added to stop the color development and the data was collected by reading the absorbance on a BioRad ELISA plate reader at OD 450 nm. The results are expressed as IC50 values (the concentration (micromolar) of compound required to inhibit 50% of the maximal response of the control sample stimulated by TNF-α only).
For orientation: In an ELISA, binding on a coated surface is turned into a signal by an enzyme label.

Setting [1] is: Homo sapiens, Endothelial cell, 16 h.

Where a name gives a salt, the structure may show the parent alone.

What is called melting point is the temperature, or range, at which the solid turns liquid. What is called IC50 is the concentration needed to halve the response being measured. High values mean lower potency, low ones higher potency.

Turning to `COc1cc(OC)c(-c2cccs2)cc1/C=C/C(=O)c1ccc(S(=O)(=O)Nc2cc(C)on2)cc1` (as salt: sodium) [Example 2, 4-[3E-(2,4-Dimethoxy-5-thien-2-ylphenyl)acryloyl]-N-(5-methylisoxazol-3-yl)benzenesulfonamide sodium salt], the melting point is above 260 °C.
Same read-out and setting: in the case of `COc1cc(OC)c(-c2cc3ccccc3n2C)cc1/C=C/C(=O)c1ccc(S(=O)(=O)Nc2cc(C)on2)cc1` (as salt: sodium) [Example 16, 4-{3E-[2,4-Dimethoxy-5-(1-methyl-1H-indol-2-yl)phenyl]acryloyl}-N-(5-methylisoxazol-3-yl)benzenesulfonamide sodium salt] it was 202 to 206 °C; in that of `COc1cc(OC)c(-c2cccs2)cc1/C=C/C(=O)c1ccc(S(=O)(=O)NCC(F)(F)F)cc1` (as salt: sodium) [Example 25, 4-[3E-(2,4-Dimethoxy-5-thien-2-ylphenyl)acryloyl]-N-(2,2,2-trifluoroethyl)benzenesulfonamide sodium salt], 160 to 170 °C.
The molecule `COc1cc(OC)c(-c2cccs2)cc1/C=C/C(=O)c1ccc(S(=O)(=O)Nc2cc(C)on2)cc1` [Example 1, 4-[3E-(2,4-Dimethoxy-5-thien-2-yl-phenyl)acryloyl]-N-(5-methylisoxazol-3-yl)benzenesulfonamide] registered a melting point of 202 to 203 °C. Also, the IC50 with VCAM-1 (setting [1]) is below 5 µM.
Consider `COc1cc(OC)c(-c2cccs2)cc1/C=C/C(=O)c1ccc(S(=O)(=O)Nc2ncccn2)cc1` [Example 3, 4-[3E-(2,4-Dimethoxy-5-thien-2-ylphenyl)acryloyl]-N-pyrimidin-2-ylbenzenesulfonamide], for which the melting point is 215 °C (dec.). Further, the IC50 with VCAM-1 (setting [1]) was below 5 µM.
The molecule `COc1cc(OC)c(-c2cccs2)cc1/C=C/C(=O)c1ccc(S(=O)(=O)Nc2nnn[nH]2)cc1` [Example 4, 4-[3E-(2,4-Dimethoxy-5-thien-2-ylphenyl)acryloyl]-N-(1-H-tetrazol-5-yl)benzenesulfonamide] gave an IC50 in the series with VCAM-1 above 10 µM.
In the case of `COc1cc(OC)c(-c2cccs2)cc1/C=C/C(=O)c1ccc(S(=O)(=O)Nc2ccccn2)cc1` [Example 5, 4-[3E-(2,4-Dimethoxy-5-thien-2-ylphenyl)acryloyl]-N-pyridin-2-ylbenzenesulfonamide], the melting point fell in the range of 141 to 143 °C. This molecule also registered an IC50 with VCAM-1 (setting [1]) below 5 µM.
Molecule `COc1cc(OC)c(-c2cccs2)cc1/C=C/C(=O)c1ccc(S(=O)(=O)Nc2cc[nH]n2)cc1` [Example 6, 4-[3E-(2,4-Dimethoxy-5-thien-2-ylphenyl)acryloyl]-N-(1H-pyrazol-3-yl)benzenesulfonamide] displayed a melting point of 142 to 145 °C. The IC50 with VCAM-1 (setting [1]) was below 5 µM.
In the case of `COc1cc(OC)c(-c2cccs2)cc1/C=C/C(=O)c1ccc(S(=O)(=O)Nc2ccon2)cc1` [Example 7, 4-[3E-(2,4-Dimethoxy-5-thien-2-ylphenyl)acryloyl]-N-isoxazol-3-ylbenzenesulfonamide], the melting point was 198 to 199 °C. The molecule further gave an IC50 with VCAM-1 (setting [1]) below 5 µM.
Molecule `COc1cc(OC)c(-c2cccs2)cc1/C=C/C(=O)c1ccc(S(=O)(=O)Nc2nccs2)cc1` [Example 8, 4-[3E-(2,4-Dimethoxy-5-thien-2-ylphenyl)acryloyl]-N-thiazol-2-ylbenzenesulfonamide] had a melting point of 220 to 221 °C. The IC50 in the series with VCAM-1 (setting [1]) was below 5 µM.
In the series with VCAM-1, `COc1cc(OC)c(-c2cccs2)cc1/C=C/C(=O)c1ccc(S(=O)(=O)Nc2cc(C)no2)cc1` [Example 9] showed a concentration for half-maximal inhibition (IC50) below 10 µM.
`COc1cc(OC)c(-c2cccs2)cc1/C=C/C(=O)c1ccc(S(=O)(=O)Nc2ccc(Cl)cn2)cc1` [Example 10, N-(5—Chloropyridin-2-yl)-4-[3E-(2,4-dimethoxy-5-thien-2-ylphenyl)acryloyl]benzenesulfonamide] returned a melting point of 228 to 229 °C. The molecule further yielded an IC50 in the series on VCAM-1 (setting [1]) below 10 µM.
For `COc1cc(OC)c(-c2cccs2)cc1/C=C/C(=O)c1ccc(S(=O)(=O)Nc2ccc(F)cn2)cc1` [Example 11, 4-[3E-(2,4-Dimethoxy-5-thien-2-ylphenyl)acryloyl]-N-(5-fluoropyridin-2-yl)benzenesulfonamide] the same measures were 194 to 195 °C and below 5 µM.
For `COc1cc(OC)c(-c2cccs2)cc1/C=C/C(=O)c1ccc(S(=O)(=O)Nc2ccc(C(F)(F)F)cn2)cc1` [Example 12, 4-[3E-(2,4-Dimethoxy-5-thien-2-ylphenyl)acryloyl]-N-(5-trifluoromethylpyridin-2-yl)benzenesulfonamide] the same measures were 228 to 229 °C and below 10 µM.
`COc1cc(OCC(CO)CO)c(/C=C/C(=O)c2ccc(S(=O)(=O)Nc3cc(C)on3)cc2)cc1-c1cccs1` [Example 13, 4-{3E-[2-(3-Hydroxy-2-hydroxymethylpropoxy)-4-methoxy-5-thien-2-ylphenyl]acryloyl}-N-(5-methylisoxazol-3-yl)benzenesulfonamide] showed a melting point of 165 to 166 °C. Besides, the concentration for half-maximal inhibition (IC50) in the series with VCAM-1 (setting [1]) was above 10 µM.
Regarding `COc1cc(OC)c(-c2cc3ccccc3n2C)cc1/C=C/C(=O)c1ccc(S(=O)(=O)Nc2cc(C)on2)cc1` [Example 16, 4-{3E-[2,4-Dimethoxy-5-(1-methyl-1H-indol-2-yl)phenyl]acryloyl}-N-(5-methylisoxazol-3-yl)benzenesulfonamide sodium salt], the IC50 with VCAM-1 (setting [1]) is below 5 µM.
The molecule `COc1cc(OC)c(-c2cc3ccccc3n2C)cc1/C=C/C(=O)c1ccc(S(=O)(=O)NCc2cccnc2)cc1` [Example 17, 4-{3E-[2,4-Dimethoxy-5-(1-methyl-1H-indol-2-yl)phenyl]acryloyl}-N-pyridin-3-ylmethy-benzenesulfonamide] came in with an IC50 with VCAM-1 below 10 µM.
On the same count and under the same terms, in the case of `COc1cc(OC)c(-c2cccs2)cc1/C=C/C(=O)c1ccc(S(=O)(=O)N2CCN(C)CC2)cc1` [Example 21, 3E-(2,4-Dimethoxy-5-thien-2-ylphenyl)-1-[4-(4-methylpiperazine-1-sulfonyl)phenyl]propenone] it was below 10 µM.
`COc1cc(OC)c(-c2cccs2)cc1/C=C/C(=O)c1ccc(S(=O)(=O)N2CCCCC2C(=O)O)cc1` (stereo not drawn) [Example 28, 1-{4-[3E-(2,4-Dimethoxy-5-thien-2-ylphenyl)acryloyl]benzenesulfonyl}piperidine-2-carboxylic acid] showed an IC50 in the series on VCAM-1 (setting [1]) below 10 µM.
Regarding `COc1cc(OC)c(-c2cc3ccccc3[nH]2)cc1/C=C/C(=O)c1ccc(S(=O)(=O)[N-]C(=O)C(C)C)cc1.[Na+]` [Example 36, 4-{3E-[5-(1H-Indol-2-yl)-2,4-dimethoxyphenyl]acryloyl}-N-isobutyrylbenzenesulfonamide sodium salt], the melting point is 249 to 251 °C (dec.).
In turn, `CCOC(=O)[N-]S(=O)(=O)c1ccc(C(=O)/C=C/c2cc(-c3cc4ccccc4[nH]3)c(OC)cc2OC)cc1.[K+]` [Example 40, N-Ethoxycarbonyl-4-{3E-[5-(1H-indol-2-yl)-2,4-dimethoxyphenyl]acryloyl}benzenesulfonamide potassium salt] returned a melting point of 220 to 222 °C.
Turning to `CCOC(=O)NS(=O)(=O)c1ccc(C(=O)/C=C/c2cc(-c3cc4ccccc4[nH]3)c(OC)cc2OC)cc1` [Example 41, N-Ethoxycarbonyl-4-{3E-[5-(1H-indol-2-yl)-2,4-dimethoxyphenyl]acryloyl}benzenesulfonamide], in the series on VCAM-1 (setting [1]), the IC50 is below 5 µM.
Molecule `CCC(=O)[N-]S(=O)(=O)c1ccc(C(=O)/C=C/c2cc(-c3cc4ccccc4[nH]3)c(OC)cc2OC)cc1.[Na+]` [Example 46, 4-{3E-[5-(1H-Indol-2-yl)-2,4-dimethoxyphenyl]acryloyl}-N-propionylbenzenesulfonamide sodium salt] gave a melting point above 250 °C.
Regarding `CCCC(=O)NS(=O)(=O)c1ccc(C(=O)/C=C/c2cc(-c3cc4ccccc4[nH]3)c(OC)cc2OC)cc1` [Example 47, N-Butyryl-4-{3E-[5-(1H-indol-2-yl)-2,4-dimethoxyphenyl]acryl}benzenesulfonamide], the IC50 in the series with VCAM-1 (setting [1]) was below 5 µM.
In the series with VCAM-1 (setting [1]), `CCCC(=O)NS(=O)(=O)c1ccc(C(=O)/C=C/c2cc(N3CCCC3)c(OC)cc2OC)cc1` [Example 48, N-Butyryl-4-[3E-(2,4-dimethoxy-5-pyrrolidin-1-ylphenyl)acryloyl]benzenesulfonamide] displayed an IC50 below 5 µM.
With `CCCC(=O)[N-]S(=O)(=O)c1ccc(C(=O)/C=C/c2cc(-c3cc4ccccc4[nH]3)c(OC)cc2OC)cc1.[Na+]` [Example 49, N-Butyryl-4-{3E-[5-(1H-indol-2-yl)-2,4-dimethoxyphenyl]acryloyl}benzenesulfonamide sodium salt], the melting point was in the range of 191 to 193 °C.

For the origin of these results see US7173129B2, “Sulfonamide-substituted chalcone derivatives and their use to treat diseases” (Athero Genics, Inc., priority 2003, dated 2007).
